According to patent publication US9873705B2, “Vinylogous thioester compounds and methods of use” (THE TRUSTEES OF DARTMOUTH COLLEGE, priority 2015, dated 2018):
Entries after “also recorded” stand apart in the source; their conditions may differ.

Columns and labels:
[1] = tested on: ira2Δ yeast (NF1 deficient yeast); experiment: Yeast growth inhibition (dose response) assay, OD600; format: cell-based, Saccharomyces cerevisiae; details: isogenic yeast system; 0 to 100 μM, 18 h
Description: A high-throughput screen was used to identify compounds that are synthetically lethal with NF1 loss (14). A synthetic lethal interaction occurs when loss of two genes due to genetic deletion or pharmacologic inhibition is nonlethal independently but is lethal in combination (FIG. 1) (17). The first gene lost is NF1, and the loss of the second gene is mimicked through treatment with the screened compounds. The screen used Saccharomyces cerevisiae lacking IRA2 (ira2Δ), a yeast homologue of NF1, as a model for NF1 loss. ira2Δ yeast have increased RAS-GTP, which in turn activates MAPK and PKA pathways that mimic the pathways that are increased in NF1 deficient Schwann cells (18). […]
Candidate compounds were screened in ira2Δ yeast cells to identify target compounds synthetically lethal to NF1 loss. Growth inhibition of yeast was measured using the optical density of yeast cultures treated with compounds compared to DMSO control (14).
Growth inhibition assays as described above were performed on ira2Δ yeast cells and NF1-deficient glioblastoma cells. […] Following 18 h treatment, OD600 was measured using a THERMOmax (Molecular Devices) microplate reader and SOFTmax Pro 4.3 LS software. […] AlamarBlue fluorescence was determined with a Spectramax M2 (Molecular Devices) plate reader at an excitation of 544 nm and an emission of 590 nm using SoftMax Pro 3 software. […]

[2] = tested on: U87-MG cells; experiment: U87-MG viability with NAC pretreatment, alamarBlue; format: cell-based, human; details: 2 hour pretreatment with 5 mM NAC, then 72 hours Y102
Protocol: The data for FIG. 6 was obtained as follows: U87-MG cells were plated at a concentration of 5,000 cells/well into 96-well plates and allowed to adhere overnight. The following day, cells were pretreated with 5 mM N-acetyl cysteine (NAC) or the equivalent volume of DMSO 2 h prior to treatment with Y102 at concentrations ranging from 0 to 20 μM for 72 h. Three hours prior to collection, alamarBlue (Thermo Scientific) was added to a final concentration of 5% v/v. AlamarBlue fluorescence was determined with a Spectramax M2 (Molecular Devices) plate reader at an excitation of 544 nm and an emission of 590 nm using SoftMax Pro 3 software. Results were plotted as a percentage compared to DMSO control using GraphPad Prism software (FIG. 6).

[3] = tested on: mitochondria of U87-MG cells; experiment: Mitotracker Red CMXRos mitochondrial phenotype imaging; format: cell-based, human; details: 24 h, 2 or 4 μM
Protocol: To examine whether there was a change in the mitochondrial phenotype of cells following Y102 treatment, Mitotracker Red CMXRos, a fluorescent dye whose accumulation is dependent upon membrane […], was used.
The data for FIG. 7 was obtained as follows: U87-MG cells were plated on poly-L-lysine (Sigma) coated coverslips at a concentration of 50,000 cells/well in a 24-well plate and allowed to adhere overnight. Cells were treated for 24 h with DMSO, 2 μM Y102, 4 μM Y102, or 50 μM HCQ. 30 minutes prior to collection, cells were stained with 100 nM Mitotracker Red CMXRos (Cell Signaling Technology, red) in media at 37° C. Cells were fixed for 10 minutes with 4% methanol-free paraformaldehyde, permeabilized for 15 minutes with 0.5% Triton X-100, blocked with immunofluorescence buffer (2%[v/v] goat serum, 0.2%[v/v] Triton X-100 and 0.05%[w/v] sodium azide in PBS) for 1 h, and stained for 1 h at room temperature for the autophagy marker p62 using anti-p62/SQSTM-1 D-3 (Santa Cruz, 1:500, 1 h at room temperature). Following 3 washes with PBST, cells were stained with goat anti-mouse 488 (Jackson ImmunoResearch Laboratories) secondary antibody for 1 h (green; not shown). After an additional two washes with PBST, cell nuclei were stained with 0.33 μg/mL DAPI (Molecular Probes) for 5 minutes (blue). Coverslips were mounted on glass slides with ProLong Gold antifade medium. […]

[4] = tested on: mitochondrial marker Tom20 in U87-MG cells; experiment: Tom20 flow cytometry (mitochondrial fluorescence); format: cell-based, human; details: 20 h, 2 or 2.75 μM
Protocol: The data for FIG. 8 was obtained as follows: U87-MG cells were plated at a concentration of 500,000 cells/well in a 6-well plate and allowed to adhere overnight. Cells were treated for 4 h with DMSO, followed by a 20 h cotreatment with DMSO, 2 μM Y102, 2.75 μM Y102, or 50 μM HCQ. Following treatment, cells were harvested using 0.25% trypsin, rinsed with PBS, and fixed for 20 minutes at 4° C. using BD Cytofix/Cytoperm fixation and permabilization solution (BD Biosciences). Following 2 washes with BD Perm/Wash buffer (BD Biosciences), cells were stained for 30 minutes at 4° C. in the dark for the mitochondrial marker Tom20 using anti-Tom20 FL-145 (Santa Cruz, 1:200). Following an additional 2 washes with BD Perm/Wash buffer, cells were stained with goat anti-rabbit 488 (Jackson ImmunoResearch Laboratories) secondary antibody for 30 minutes at 4° C. in the dark. Cells were washed twice with BD Perm/Wash buffer, resuspended in 0.5 mL PBS, and filtered prior to analysis. The cells were transferred to flow cytometry tubes and analyzed using a MacsQuant VYB 8-color flow cytometer. Tom20 fluorescence was detected using the B1-A (FITC) channel. 35,000 events/sample were collected and cellular debris was gated out of the dataset. Histograms were generated using the FlowLogic flow cytometry analysis software package.

[5] = tested on: U-87-MG; experiment: Glioblastoma cell growth, Alamar Blue, 3 or 7 days; format: cell-based, human; details: 3.9×10^-8 M to 2×10^-5 M
Protocol: (§1) 1000 cells in logarithmic phase were seeded per well (96 well plates) on day zero. The cells were treated for either 3 (red) or 7 (blue) days at a concentration range between 3.9×10^-8 M and 2×10^-5 M. Growth was assayed by the Alamar Blue method.

[6] = tested on: U251-MG; experiment: Glioblastoma cell growth, Alamar Blue, 3 or 7 days; format: cell-based, human; details: 3.9×10^-8 M to 2×10^-5 M
Protocol: as §1

**Q.** Which results are given for `Cn1cnnc1S/C=C/C(=O)c1ccc(F)cc1` [Y102]?
**A.** sensitivity of NF1 deficient yeast (growth) [1]: selectively sensitive; sensitivity to Y102 after NAC pretreatment [2]: reversed sensitivity to Y102; also recorded: rescued; mitochondrial phenotype (Mitotracker Red CMXRos) [3]: altered mitochondrial phenotype; also recorded: perinuclear clustering of the mitochondria; mitochondrial phenotype (Mitotracker Red CMXRos) ([3]; listed as Y1022): perinuclear accumulation of the mitochondria; mitochondrial fluorescence / accumulation (Tom20) [4]: increase in mitochondrial fluorescence; also recorded: accumulation of the mitochondria; sensitivity of U-87-MG (growth) [5]: sensitive; sensitivity of U251-MG (growth) [6]: sensitive
